Values quoted from earlier work, collected in patent US5830500A, “Low dose fluoxetine tablet” (Pentech Pharmaceuticals, Inc., priority 1996, dated 1998).

Test system: premature ejaculation
Conditions: reported

In the case of CN(C)CCCN1c2ccccc2CCc2ccc(Cl)cc21 [clomipramine], the side effects is given as “weight gain, sedation, and anticholinergic effects” and the “success in managing premature ejaculation” value (informal use by a few practitioners) is given as “Some limited success”.
